Reference: the supplement of paper PMC10307832

Experiments:
Assay in all cases: relative viability (nuclei count vs DMSO), 5 days (fraction); higher = more cells survive
201T = system: 201T
In short: (§1)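 Medians of duplicate plates are given as relative viability. That measure is the nuclei count in treated wells divided by the count in vehicle wells. Counts were taken on 4× images of lung cancer cell lines in 1536-well plates, 5 days after pin-tool dosing the day after seeding with one drug alone or a fixed anchor-drug dose plus five library-drug doses (not always all listed) in √10 steps.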

COR-L23 = system: COR-L23
In short: as §1

H3255 = system: H3255
In short: as §1

HARA = system: HARA
In short: as §1

HCC-366 = system: HCC-366
In short: as §1

HCC-78 = system: HCC-78
In short: as §1

LU99A = system: LU99A
In short: as §1

NCI-H1650 = system: NCI-H1650
In short: as §1

NCI-H1651 = system: NCI-H1651
In short: as §1

NCI-H1755 = system: NCI-H1755
In short: as §1

NCI-H1793 = system: NCI-H1793
In short: as §1

NCI-H2085 = system: NCI-H2085
In short: as §1

With `Cc1csc(=NC2CCCCC2)n1/N=C/c1ccc(O)c(O)c1O` [MIM1] + Nc1nc2[nH]cc(CCc3ccc(C(=O)N[C@@H](CCC(=O)O)C(=O)O)cc3)c2c(=O)[nH]1 [Pemetrexed] (partner 0.2 µM) the relative viability (201T; first compound 0.2 µM) was 0.372, the relative viability (201T; first compound 0.6325 µM) was 0.338 and the relative viability (201T; first compound 2 µM) was 0.38. It also gave a relative viability (201T; first compound 6.325 µM) of 0.31, a relative viability (201T; first compound 20 µM) of 0.318 and a relative viability (COR-L23; first compound 0.2 µM) of 0.208. The relative viability (COR-L23; first compound 0.6325 µM) was 0.194, the relative viability (COR-L23; first compound 2 µM) was 0.191 and the relative viability (COR-L23; first compound 6.325 µM) was 0.19. For the same molecule, the relative viability (COR-L23; first compound 20 µM) was 0.198, the relative viability (H3255; first compound 0.2 µM) was 0.539 and the relative viability (H3255; first compound 0.6325 µM) was 0.553. For the same molecule, the relative viability (H3255; first compound 2 µM) was 0.532, the relative viability (H3255; first compound 6.325 µM) was 0.556 and the relative viability (H3255; first compound 20 µM) was 0.312. For the same molecule, the relative viability (HARA; first compound 0.2 µM) was 0.22, the relative viability (HARA; first compound 0.6325 µM) was 0.261 and the relative viability (HARA; first compound 2 µM) was 0.237. It also gave a relative viability (HARA; first compound 6.325 µM) of 0.234, a relative viability (HARA; first compound 20 µM) of 0.149 and a relative viability (HCC-366; first compound 0.2 µM) of 0.161. The relative viability (HCC-366; first compound 2 µM) was 0.176, the relative viability (HCC-366; first compound 6.325 µM) was 0.152 and the relative viability (HCC-366; first compound 20 µM) was 0.0413. For the same molecule, the relative viability (HCC-78; first compound 0.2 µM) was 0.851, the relative viability (HCC-78; first compound 2 µM) was 0.927 and the relative viability (HCC-78; first compound 6.325 µM) was 0.858. It also gave a relative viability (HCC-78; first compound 20 µM) of 0.919, a relative viability (LU99A; first compound 0.2 µM) of 0.178 and a relative viability (LU99A; first compound 0.6325 µM) of 0.193. It also gave a relative viability (LU99A; first compound 2 µM) of 0.175, a relative viability (LU99A; first compound 6.325 µM) of 0.17 and a relative viability (LU99A; first compound 20 µM) of 0.16. It also gave a relative viability (NCI-H1650; first compound 0.2 µM) of 0.341, a relative viability (NCI-H1650; first compound 0.6325 µM) of 0.393 and a relative viability (NCI-H1650; first compound 2 µM) of 0.363. For the same molecule, the relative viability (NCI-H1650; first compound 6.325 µM) was 0.191, the relative viability (NCI-H1650; first compound 20 µM) was 0.202 and the relative viability (NCI-H1651; first compound 0.2 µM) was 0.57. For the same molecule, the relative viability (NCI-H1651; first compound 0.6325 µM) was 0.443, the relative viability (NCI-H1651; first compound 2 µM) was 0.564 and the relative viability (NCI-H1651; first compound 6.325 µM) was 0.476. It also gave a relative viability (NCI-H1651; first compound 20 µM) of 0.558, a relative viability (NCI-H1755; first compound 0.2 µM) of 0.377 and a relative viability (NCI-H1755; first compound 0.6325 µM) of 0.419. The relative viability (NCI-H1755; first compound 2 µM) was 0.41, the relative viability (NCI-H1755; first compound 6.325 µM) was 0.41 and the relative viability (NCI-H1755; first compound 20 µM) was 0.269. The relative viability (NCI-H1793; first compound 0.2 µM) was 0.937, the relative viability (NCI-H1793; first compound 2 µM) was 1.13 and the relative viability (NCI-H1793; first compound 6.325 µM) was 0.848. For the same molecule, the relative viability (NCI-H1793; first compound 20 µM) was 0.936, the relative viability (NCI-H2085; first compound 0.2 µM) was 0.903 and the relative viability (NCI-H2085; first compound 0.6325 µM) was 0.873. It also gave a relative viability (NCI-H2085; first compound 2 µM) of 0.885 and a relative viability (NCI-H2085; first compound 6.325 µM) of 0.777.
